Data as given in ChEMBL document CHEMBL4052776, “Discovery of 3-morpholino-imidazole[1,5-a]pyrazine BTK inhibitors for rheumatoid arthritis” (Bioorg Med Chem Lett, 2017).

Tests used:
[1] = molecular target: Tyrosine-protein kinase Fgr (Homo sapiens, UniProt P09769); assay: Inhibition of FGR (unknown origin)
[2] = molecular target: Tyrosine-protein kinase Fyn (Homo sapiens, UniProt P06241); assay: Inhibition of FYN (unknown origin)
[3] = molecular target: Proto-oncogene tyrosine-protein kinase Src (Homo sapiens, UniProt P12931); assay: Inhibition of SRC (unknown origin)
[4] = Half life in dog at 2 mg/kg administered as cassette dose; type: ADME, organism-based, Canis lupus familiaris; conditions: in vivo
[5] = molecular target: T1, Tyrosine-protein kinase BTK (Homo sapiens, UniProt Q06187); assay: Inhibition of recombinant full-length His6-tagged BTK (unknown origin) expressed in baculovirus infected Sf9 cells using biotinylated A5 peptide as substrate preincubated for 60 mins followed by substrate addition measured after 120 mins by LANCE TR-FRET assay
[6] = molecular target: T1, Tyrosine-protein kinase BTK; assay: Inhibition of BTK in human PBMC assessed as reduction in anti-IgM-induced MIP1beta
[7] = molecular target: Tyrosine-protein kinase CSK (Homo sapiens, UniProt P41240); assay: Inhibition of CSK (unknown origin)
[8] = molecular target: Receptor tyrosine-protein kinase erbB-4 (Homo sapiens, UniProt Q15303); assay: Inhibition of ERBB4 (unknown origin)
[9] = molecular target: Protein-tyrosine kinase 6 (Homo sapiens, UniProt Q13882); assay: Inhibition of PTK6 (unknown origin)
[10] = Half life in rat at 10 mg/kg; type: ADME, organism-based; conditions: in vivo
[11] = molecular target: Tyrosine-protein kinase Lyn (Homo sapiens, UniProt P07948); assay: Inhibition of LYNB (unknown origin)
[12] = molecular target: Tyrosine-protein kinase FRK (Homo sapiens, UniProt P42685); assay: Inhibition of FRK (unknown origin)
[13] = molecular target: Tyrosine-protein kinase Srms (Homo sapiens, UniProt Q9H3Y6); assay: Inhibition of SRMS (unknown origin)
[14] = molecular target: Tyrosine-protein kinase Blk (Homo sapiens, UniProt P51451); assay: Inhibition of BLK (unknown origin)
[15] = Total clearance in dog plasma at 2 mg/kg administered as cassette dose; type: ADME, organism-based, Canis lupus familiaris
[16] = Oral bioavailability in rat at 10 mg/kg; type: ADME, organism-based; conditions: in vivo
[17] = molecular target: T2, Tyrosine-protein kinase Tec (Homo sapiens, UniProt P42680); assay: Inhibition of TEC (unknown origin)
T2 sequence (P42680 whole entry): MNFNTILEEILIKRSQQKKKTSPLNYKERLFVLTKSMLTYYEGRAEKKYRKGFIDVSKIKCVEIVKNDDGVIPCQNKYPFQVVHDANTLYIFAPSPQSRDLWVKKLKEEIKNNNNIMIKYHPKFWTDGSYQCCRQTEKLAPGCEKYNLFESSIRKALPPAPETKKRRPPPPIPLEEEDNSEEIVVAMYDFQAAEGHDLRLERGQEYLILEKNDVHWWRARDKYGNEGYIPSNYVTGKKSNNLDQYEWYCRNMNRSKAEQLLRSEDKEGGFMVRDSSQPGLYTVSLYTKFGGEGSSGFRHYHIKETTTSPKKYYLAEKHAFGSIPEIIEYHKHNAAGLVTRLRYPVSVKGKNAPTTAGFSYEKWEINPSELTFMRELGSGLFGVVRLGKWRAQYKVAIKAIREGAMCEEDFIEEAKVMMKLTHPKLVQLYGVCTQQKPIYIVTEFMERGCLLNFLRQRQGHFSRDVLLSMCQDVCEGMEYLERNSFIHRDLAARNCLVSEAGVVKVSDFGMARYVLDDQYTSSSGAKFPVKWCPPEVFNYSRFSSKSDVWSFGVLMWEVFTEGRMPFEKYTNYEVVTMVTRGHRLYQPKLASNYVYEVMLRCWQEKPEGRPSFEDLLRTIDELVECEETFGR

[18] = molecular target: T3, Tyrosine-protein kinase TXK (Homo sapiens, UniProt P42681); assay: Inhibition of TXK (unknown origin)
T3 sequence (P42681 whole entry): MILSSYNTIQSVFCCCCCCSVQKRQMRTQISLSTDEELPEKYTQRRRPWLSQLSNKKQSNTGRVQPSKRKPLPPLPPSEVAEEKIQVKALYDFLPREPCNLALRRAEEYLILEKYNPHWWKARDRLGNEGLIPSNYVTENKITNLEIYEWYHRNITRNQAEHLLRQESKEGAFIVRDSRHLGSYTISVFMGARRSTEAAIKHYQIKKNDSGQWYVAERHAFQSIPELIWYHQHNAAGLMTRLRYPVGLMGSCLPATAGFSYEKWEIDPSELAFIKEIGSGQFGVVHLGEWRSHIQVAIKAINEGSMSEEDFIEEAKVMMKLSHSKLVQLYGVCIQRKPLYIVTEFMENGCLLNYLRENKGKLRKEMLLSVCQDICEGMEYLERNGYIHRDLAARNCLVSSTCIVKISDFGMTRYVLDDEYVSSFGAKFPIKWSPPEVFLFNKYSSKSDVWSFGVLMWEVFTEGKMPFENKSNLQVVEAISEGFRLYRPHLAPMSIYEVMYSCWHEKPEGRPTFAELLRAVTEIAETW

[19] = Total clearance in rat plasma at 10 mg/kg; type: ADME, organism-based
[20] = molecular target: Tyrosine-protein kinase Lck (Homo sapiens, UniProt P06239); assay: Inhibition of LCK (unknown origin)
[21] = molecular target: T4, Cytoplasmic tyrosine-protein kinase BMX (Homo sapiens, UniProt P51813); assay: Inhibition of BMX (unknown origin)
T4 sequence (P51813 whole entry): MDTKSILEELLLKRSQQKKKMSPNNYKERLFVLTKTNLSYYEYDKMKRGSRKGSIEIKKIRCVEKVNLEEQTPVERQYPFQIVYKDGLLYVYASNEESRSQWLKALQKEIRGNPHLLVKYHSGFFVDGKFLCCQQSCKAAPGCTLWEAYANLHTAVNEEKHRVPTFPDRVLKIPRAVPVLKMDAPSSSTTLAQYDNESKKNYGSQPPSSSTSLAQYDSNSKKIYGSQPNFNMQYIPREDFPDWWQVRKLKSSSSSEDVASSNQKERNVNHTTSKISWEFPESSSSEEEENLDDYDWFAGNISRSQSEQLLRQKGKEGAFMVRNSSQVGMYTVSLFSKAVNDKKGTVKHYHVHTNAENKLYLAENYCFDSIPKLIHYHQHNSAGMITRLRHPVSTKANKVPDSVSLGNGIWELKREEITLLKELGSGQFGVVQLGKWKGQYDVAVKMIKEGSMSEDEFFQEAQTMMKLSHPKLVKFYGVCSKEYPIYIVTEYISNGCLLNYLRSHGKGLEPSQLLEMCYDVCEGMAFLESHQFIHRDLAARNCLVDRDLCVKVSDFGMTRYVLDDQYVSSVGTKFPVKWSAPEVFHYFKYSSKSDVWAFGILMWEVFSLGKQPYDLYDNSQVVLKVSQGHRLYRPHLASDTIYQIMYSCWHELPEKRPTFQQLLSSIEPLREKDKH

[22] = molecular target: Tyrosine-protein kinase Yes (Homo sapiens, UniProt P07947); assay: Inhibition of YES1 (unknown origin)
[23] = molecular target: Voltage-gated inwardly rectifying potassium channel KCNH2 (Homo sapiens, UniProt Q12809); assay: Inhibition of human ERG by [35S]-MK499 displacement or iKr channel assay
Sequence of Voltage-gated inwardly rectifying potassium channel KCNH2 (Q12809 whole entry): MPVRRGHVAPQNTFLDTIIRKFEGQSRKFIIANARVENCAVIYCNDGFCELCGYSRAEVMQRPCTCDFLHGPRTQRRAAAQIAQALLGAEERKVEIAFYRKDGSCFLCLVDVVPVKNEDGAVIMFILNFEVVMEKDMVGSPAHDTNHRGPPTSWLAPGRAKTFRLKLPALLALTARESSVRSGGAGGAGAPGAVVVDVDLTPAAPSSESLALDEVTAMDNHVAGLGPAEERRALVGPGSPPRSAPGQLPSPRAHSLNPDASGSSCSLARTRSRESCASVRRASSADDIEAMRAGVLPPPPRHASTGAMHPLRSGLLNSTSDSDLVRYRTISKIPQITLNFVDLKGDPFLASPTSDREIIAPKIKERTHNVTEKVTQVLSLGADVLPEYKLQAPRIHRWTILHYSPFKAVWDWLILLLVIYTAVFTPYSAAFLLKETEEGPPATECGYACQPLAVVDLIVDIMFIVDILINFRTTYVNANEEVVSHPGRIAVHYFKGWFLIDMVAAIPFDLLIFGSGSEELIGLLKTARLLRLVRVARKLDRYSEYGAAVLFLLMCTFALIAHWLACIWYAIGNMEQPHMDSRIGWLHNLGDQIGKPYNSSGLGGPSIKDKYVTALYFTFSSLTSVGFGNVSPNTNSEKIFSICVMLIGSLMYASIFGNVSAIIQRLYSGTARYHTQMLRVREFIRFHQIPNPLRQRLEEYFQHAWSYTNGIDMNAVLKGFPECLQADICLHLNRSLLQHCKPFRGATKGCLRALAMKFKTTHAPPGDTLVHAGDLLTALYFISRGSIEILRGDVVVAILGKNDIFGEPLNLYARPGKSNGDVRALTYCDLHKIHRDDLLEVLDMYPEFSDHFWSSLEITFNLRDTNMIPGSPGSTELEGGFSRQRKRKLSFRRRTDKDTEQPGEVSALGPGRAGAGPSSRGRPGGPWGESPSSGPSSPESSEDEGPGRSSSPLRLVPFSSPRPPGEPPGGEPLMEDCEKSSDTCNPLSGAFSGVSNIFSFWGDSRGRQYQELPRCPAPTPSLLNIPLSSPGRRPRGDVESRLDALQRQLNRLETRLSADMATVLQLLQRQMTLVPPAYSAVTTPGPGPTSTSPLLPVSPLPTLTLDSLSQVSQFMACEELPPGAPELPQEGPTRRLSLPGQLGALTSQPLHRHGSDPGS

T1 sequence (Q06187 whole entry): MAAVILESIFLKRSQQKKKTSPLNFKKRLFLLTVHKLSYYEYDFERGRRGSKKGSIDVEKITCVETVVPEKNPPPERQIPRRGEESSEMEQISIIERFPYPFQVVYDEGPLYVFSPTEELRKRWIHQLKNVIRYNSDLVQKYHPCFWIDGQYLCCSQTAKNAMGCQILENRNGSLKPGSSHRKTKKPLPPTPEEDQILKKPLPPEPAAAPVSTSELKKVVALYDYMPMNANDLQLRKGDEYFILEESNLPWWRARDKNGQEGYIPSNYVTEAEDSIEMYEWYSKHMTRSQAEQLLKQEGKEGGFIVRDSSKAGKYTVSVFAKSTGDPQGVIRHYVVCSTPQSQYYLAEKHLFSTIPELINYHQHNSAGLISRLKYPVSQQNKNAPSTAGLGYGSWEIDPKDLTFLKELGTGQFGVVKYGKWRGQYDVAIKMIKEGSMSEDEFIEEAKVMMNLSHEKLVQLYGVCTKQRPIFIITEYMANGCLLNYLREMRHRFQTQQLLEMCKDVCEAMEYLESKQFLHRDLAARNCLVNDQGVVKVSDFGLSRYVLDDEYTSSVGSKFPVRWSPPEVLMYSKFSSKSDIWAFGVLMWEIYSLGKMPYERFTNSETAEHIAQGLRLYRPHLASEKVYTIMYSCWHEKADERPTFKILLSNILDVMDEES
Sequence of Tyrosine-protein kinase Fgr (P09769 whole entry): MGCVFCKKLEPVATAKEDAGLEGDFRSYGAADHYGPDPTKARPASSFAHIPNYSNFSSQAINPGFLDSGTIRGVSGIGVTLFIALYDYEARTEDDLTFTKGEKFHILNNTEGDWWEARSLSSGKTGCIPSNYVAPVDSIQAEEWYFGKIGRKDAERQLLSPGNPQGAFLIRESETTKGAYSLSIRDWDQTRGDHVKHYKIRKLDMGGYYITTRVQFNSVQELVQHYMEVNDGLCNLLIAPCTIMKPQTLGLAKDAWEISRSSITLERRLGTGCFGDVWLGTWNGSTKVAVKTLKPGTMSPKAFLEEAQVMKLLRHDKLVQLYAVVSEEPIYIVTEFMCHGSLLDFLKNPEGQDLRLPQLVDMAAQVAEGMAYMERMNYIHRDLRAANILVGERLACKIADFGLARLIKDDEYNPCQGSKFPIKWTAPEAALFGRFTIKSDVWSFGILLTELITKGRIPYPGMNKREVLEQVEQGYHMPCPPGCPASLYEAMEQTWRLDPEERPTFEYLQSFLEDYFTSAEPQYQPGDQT
Sequence of Tyrosine-protein kinase CSK (P41240 whole entry): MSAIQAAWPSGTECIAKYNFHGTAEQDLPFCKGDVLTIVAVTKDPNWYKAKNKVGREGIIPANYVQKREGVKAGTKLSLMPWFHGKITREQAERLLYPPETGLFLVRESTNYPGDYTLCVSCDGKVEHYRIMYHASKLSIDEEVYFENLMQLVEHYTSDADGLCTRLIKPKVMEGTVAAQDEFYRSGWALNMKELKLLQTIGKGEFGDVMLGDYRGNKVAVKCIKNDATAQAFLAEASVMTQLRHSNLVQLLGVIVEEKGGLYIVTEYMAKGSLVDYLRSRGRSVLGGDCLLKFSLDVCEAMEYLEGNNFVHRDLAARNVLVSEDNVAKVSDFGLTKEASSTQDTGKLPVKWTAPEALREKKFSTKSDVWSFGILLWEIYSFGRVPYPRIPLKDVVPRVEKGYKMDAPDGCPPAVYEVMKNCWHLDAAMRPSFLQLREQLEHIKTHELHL
Sequence of Protein-tyrosine kinase 6 (Q13882 whole entry): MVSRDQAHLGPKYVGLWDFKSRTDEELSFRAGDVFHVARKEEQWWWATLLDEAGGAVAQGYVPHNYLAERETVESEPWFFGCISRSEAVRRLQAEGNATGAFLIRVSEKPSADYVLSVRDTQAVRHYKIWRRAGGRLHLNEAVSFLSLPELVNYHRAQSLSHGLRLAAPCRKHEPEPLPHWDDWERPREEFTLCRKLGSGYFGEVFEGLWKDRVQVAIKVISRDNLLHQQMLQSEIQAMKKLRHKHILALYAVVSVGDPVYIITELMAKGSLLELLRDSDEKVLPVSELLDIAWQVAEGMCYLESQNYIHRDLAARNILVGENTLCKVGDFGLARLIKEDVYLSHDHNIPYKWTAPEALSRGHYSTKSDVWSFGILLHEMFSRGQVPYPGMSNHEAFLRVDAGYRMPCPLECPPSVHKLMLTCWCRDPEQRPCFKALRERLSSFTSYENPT
Sequence of Tyrosine-protein kinase FRK (P42685 whole entry): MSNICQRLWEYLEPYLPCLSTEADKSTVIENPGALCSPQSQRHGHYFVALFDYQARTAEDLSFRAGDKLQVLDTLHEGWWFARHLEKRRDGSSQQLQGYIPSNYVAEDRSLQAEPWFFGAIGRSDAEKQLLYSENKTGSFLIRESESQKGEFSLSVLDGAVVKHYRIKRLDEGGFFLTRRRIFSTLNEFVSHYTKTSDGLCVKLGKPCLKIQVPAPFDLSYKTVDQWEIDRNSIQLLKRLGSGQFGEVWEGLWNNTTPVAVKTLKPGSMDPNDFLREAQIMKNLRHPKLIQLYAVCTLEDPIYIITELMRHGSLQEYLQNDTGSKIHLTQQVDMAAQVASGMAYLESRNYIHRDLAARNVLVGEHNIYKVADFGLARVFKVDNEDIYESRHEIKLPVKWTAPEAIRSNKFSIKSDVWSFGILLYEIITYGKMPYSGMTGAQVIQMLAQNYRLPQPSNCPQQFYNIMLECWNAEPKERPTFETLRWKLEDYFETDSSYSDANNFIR
Sequence of Tyrosine-protein kinase Srms (Q9H3Y6 whole entry): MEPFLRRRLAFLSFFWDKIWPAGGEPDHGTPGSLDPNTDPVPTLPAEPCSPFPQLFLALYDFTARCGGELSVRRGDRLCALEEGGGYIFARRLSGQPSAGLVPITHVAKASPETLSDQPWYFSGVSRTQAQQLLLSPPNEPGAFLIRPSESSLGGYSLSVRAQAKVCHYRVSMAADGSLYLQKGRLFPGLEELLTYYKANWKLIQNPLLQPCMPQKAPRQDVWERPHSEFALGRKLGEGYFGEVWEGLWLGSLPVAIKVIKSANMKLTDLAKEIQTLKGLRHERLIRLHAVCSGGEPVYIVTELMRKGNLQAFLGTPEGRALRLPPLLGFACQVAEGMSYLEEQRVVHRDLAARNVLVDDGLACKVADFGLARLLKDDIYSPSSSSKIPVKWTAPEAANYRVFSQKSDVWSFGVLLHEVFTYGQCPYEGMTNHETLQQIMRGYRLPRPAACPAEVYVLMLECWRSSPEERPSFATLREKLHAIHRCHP
Sequence of Proto-oncogene tyrosine-protein kinase Src (P12931 2-536 limits assumed): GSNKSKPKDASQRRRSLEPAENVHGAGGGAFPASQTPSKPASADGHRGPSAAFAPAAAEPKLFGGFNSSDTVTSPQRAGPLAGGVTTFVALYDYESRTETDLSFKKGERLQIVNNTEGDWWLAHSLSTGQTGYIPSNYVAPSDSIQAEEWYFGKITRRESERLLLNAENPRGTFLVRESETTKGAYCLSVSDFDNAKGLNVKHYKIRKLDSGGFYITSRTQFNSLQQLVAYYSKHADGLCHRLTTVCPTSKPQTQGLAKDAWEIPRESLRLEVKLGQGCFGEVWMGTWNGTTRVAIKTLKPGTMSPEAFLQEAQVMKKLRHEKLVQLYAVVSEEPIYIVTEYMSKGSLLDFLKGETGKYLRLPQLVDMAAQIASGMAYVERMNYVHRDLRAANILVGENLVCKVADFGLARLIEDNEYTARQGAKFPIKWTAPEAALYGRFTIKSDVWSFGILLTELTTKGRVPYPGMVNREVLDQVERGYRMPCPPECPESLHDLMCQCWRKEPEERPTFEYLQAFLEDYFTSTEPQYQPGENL

| SMILES | IC50 [1] [nM] | IC50 [2] [nM] | IC50 [3] [nM] | IC50 [5] [nM] | IC50 [6] [nM] | IC50 [7] [nM] | IC50 [8] [nM] | IC50 [9] [nM] | IC50 [11] [nM] | IC50 [12] [nM] | IC50 [13] [nM] | IC50 [14] [nM] | IC50 [17] [nM] | IC50 [18] [nM] | IC50 [20] [nM] | IC50 [21] [nM] | IC50 [22] [nM] | IC50 [23] [nM] | further results |
| --- | --- | --- | --- | --- | --- | --- | --- | --- | --- | --- | --- | --- | --- | --- | --- | --- | --- | --- | --- |
| Nc1nccn2c([C@H]3CN(C4CCOCC4)CCO3)nc(-c3ccc(C(=O)Nc4cc(C(F)(F)F)ccn4)cc3F)c12 | 39 | 248 | 112 | 0.59 to 0.6 | 13 | 665 | 76 | 113 | 399 | 132 | 65 | 50 | 191 | 282 | 21 | 200 | 60 |  | half-life [4]: 3.1 h; half-life [10]: 1.1 h; clearance [15]: 5.9 mL/min/kg; bioavailability [16]: 75%; clearance [19]: 23 mL/min/kg |
| CC(C)C(=O)N1CCC[C@@H](c2nc(-c3ccc(C(=O)Nc4cc(C(F)(F)F)ccn4)cc3F)c3c(N)nccn23)C1 | 203 | 894 | 265 | 0.25 to 0.3 | 5 | 1150 | 230 | 350 | 646 | 472 | 84 | 53 | 378 | 132 | 74 | 83 | 189 |  |  |
| COCCC(=O)N1CCO[C@@H](c2nc(-c3ccc(C(=O)Nc4cc(C(F)(F)F)ccn4)cc3)c3c(N)nccn23)C1 |  |  |  |  |  |  |  |  |  |  |  |  |  |  |  |  |  | 5800 |  |
| CC1(C(=O)N2CCO[C@@H](c3nc(-c4ccc(C(=O)Nc5cc(C(F)(F)F)ccn5)cc4F)c4c(N)nccn34)C2)CCC1 |  |  |  |  |  |  |  |  |  |  |  |  |  |  |  |  |  | 14000 |  |
| CC1(C(=O)N2CCO[C@@H](c3nc(-c4ccc(C(=O)Nc5cc(C(F)(F)F)ccn5)cc4)c4c(N)nccn34)C2)COC1 |  |  |  |  |  |  |  |  |  |  |  |  |  |  |  |  |  | 14400 |  |
| CC1(C(=O)N2CC(c3nc(-c4ccc(C(=O)Nc5cc(C(F)(F)F)ccn5)cc4)c4c(N)nccn34)C2)COC1 |  |  |  |  |  |  |  |  |  |  |  |  |  |  |  |  |  | 400 |  |
